pIC50: −log10 of the molar value.
Columns and labels:
[1] = species: Homo sapiens; assay: Selectivity index, ratio of IC50 for YES1 (unknown origin) to IC50 for recombinant full length BTK (unknown origin) expressed in baculovirus infected Sf9 cells
[2] = species: Homo sapiens; assay: Selectivity index, ratio of IC50 for ERBB4 (unknown origin) to IC50 for recombinant full length BTK (unknown origin) expressed in baculovirus infected Sf9 cells
[3] = Cmax in Wistar Han rat at 5 mg/kg, po; assay type: ADME, organism-based; design: route oral, dose 5 mg/kg; settings: in vivo
[4] = target: Proto-oncogene tyrosine-protein kinase Src (Homo sapiens, UniProt P12931); assay: Inhibition of SRC (unknown origin)
Proto-oncogene tyrosine-protein kinase Src, sequence (P12931 2-536 limits assumed): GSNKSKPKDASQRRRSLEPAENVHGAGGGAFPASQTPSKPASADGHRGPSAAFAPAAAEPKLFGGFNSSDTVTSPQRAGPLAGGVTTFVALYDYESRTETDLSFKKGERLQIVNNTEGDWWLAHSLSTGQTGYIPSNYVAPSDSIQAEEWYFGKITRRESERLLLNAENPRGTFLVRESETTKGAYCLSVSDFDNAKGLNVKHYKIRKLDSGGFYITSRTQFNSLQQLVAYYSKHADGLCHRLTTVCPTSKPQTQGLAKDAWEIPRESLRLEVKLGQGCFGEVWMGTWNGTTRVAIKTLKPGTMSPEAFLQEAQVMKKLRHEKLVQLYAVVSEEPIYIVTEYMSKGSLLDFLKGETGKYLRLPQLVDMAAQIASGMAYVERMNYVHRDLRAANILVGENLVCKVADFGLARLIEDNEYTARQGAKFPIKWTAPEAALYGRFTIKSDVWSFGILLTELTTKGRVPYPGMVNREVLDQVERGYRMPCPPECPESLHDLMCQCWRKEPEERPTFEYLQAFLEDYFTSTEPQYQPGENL

[5] = species: Homo sapiens; assay: Selectivity index, ratio of IC50 for LYNB (unknown origin) to IC50 for recombinant full length BTK (unknown origin) expressed in baculovirus infected Sf9 cells
[6] = species: Homo sapiens; assay: Selectivity index, ratio of IC50 for PTK6 (unknown origin) to IC50 for recombinant full length BTK (unknown origin) expressed in baculovirus infected Sf9 cells
[7] = AUC in Wistar Han rat at 2 mg/kg, iv; assay type: ADME, organism-based; design: dose 2 mg/kg; settings: in vivo
[8] = target: T1, Tyrosine-protein kinase Tec (Homo sapiens, UniProt P42680); assay: Inhibition of TEC (unknown origin)
T1 sequence (P42680 whole entry): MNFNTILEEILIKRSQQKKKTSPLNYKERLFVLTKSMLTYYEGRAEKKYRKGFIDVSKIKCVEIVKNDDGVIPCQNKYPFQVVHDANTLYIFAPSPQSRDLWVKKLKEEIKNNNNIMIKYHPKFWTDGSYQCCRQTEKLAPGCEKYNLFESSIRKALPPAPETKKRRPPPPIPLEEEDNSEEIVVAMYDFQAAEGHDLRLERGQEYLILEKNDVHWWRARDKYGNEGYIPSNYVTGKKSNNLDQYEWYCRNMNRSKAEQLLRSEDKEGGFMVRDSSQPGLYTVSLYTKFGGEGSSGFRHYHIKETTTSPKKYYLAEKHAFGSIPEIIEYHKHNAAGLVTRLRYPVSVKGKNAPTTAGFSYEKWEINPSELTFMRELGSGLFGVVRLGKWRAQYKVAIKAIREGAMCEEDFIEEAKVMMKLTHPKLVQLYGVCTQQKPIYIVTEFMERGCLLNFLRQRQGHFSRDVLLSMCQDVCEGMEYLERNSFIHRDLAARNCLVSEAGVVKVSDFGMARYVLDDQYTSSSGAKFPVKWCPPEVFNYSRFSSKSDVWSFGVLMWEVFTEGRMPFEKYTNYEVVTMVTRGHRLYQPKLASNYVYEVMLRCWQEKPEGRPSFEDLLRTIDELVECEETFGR

[9] = target: Tyrosine-protein kinase Srms (Homo sapiens, UniProt Q9H3Y6); assay: Inhibition of SRMS (unknown origin)
Tyrosine-protein kinase Srms, sequence (Q9H3Y6 whole entry): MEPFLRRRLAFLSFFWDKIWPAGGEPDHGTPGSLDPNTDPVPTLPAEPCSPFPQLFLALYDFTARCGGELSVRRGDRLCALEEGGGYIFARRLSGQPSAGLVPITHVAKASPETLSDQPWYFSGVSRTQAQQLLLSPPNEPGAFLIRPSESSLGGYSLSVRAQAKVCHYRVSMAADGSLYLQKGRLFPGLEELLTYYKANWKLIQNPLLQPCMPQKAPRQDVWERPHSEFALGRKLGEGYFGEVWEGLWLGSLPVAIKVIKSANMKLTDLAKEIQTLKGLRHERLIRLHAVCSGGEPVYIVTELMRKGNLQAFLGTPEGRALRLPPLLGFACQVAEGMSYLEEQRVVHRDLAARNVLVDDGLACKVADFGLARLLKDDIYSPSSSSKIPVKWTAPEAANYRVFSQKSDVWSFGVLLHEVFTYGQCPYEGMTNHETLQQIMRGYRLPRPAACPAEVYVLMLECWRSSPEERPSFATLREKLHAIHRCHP

[10] = Volume of distribution at steady state in Wistar Han rat at 2 mg/kg, iv; assay type: ADME, organism-based; settings: in vivo, read-out: Vdss
[11] = species: Homo sapiens; assay: Selectivity index, ratio of IC50 for BMX (unknown origin) to IC50 for recombinant full length BTK (unknown origin) expressed in baculovirus infected Sf9 cells
[12] = target: Tyrosine-protein kinase Lck (Homo sapiens, UniProt P06239); assay: Inhibition of LCK (unknown origin)
[13] = Half life in Wistar Han rat at 2 mg/kg, iv; assay type: ADME, organism-based; settings: in vivo
[14] = target: Tyrosine-protein kinase FRK (Homo sapiens, UniProt P42685); assay: Inhibition of FRK (unknown origin)
Tyrosine-protein kinase FRK, sequence (P42685 whole entry): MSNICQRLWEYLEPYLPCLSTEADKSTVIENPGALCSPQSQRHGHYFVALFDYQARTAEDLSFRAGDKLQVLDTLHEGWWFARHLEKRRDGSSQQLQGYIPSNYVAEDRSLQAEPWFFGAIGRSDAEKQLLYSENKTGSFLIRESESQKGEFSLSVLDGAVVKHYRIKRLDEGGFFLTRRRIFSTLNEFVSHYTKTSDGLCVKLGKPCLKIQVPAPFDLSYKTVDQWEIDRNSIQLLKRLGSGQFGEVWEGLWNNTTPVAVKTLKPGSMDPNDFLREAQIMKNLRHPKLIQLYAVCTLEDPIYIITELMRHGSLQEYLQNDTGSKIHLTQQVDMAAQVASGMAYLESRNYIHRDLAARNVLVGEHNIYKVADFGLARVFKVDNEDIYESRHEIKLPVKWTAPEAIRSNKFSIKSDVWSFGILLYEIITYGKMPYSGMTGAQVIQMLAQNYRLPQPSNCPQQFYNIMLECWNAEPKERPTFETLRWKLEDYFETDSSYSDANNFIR

[15] = Clearance in Wistar Han rat at 2 mg/kg, iv; assay type: ADME, organism-based; settings: in vivo
[16] = target: Receptor tyrosine-protein kinase erbB-4 (Homo sapiens, UniProt Q15303); assay: Inhibition of ERBB4 (unknown origin)
Receptor tyrosine-protein kinase erbB-4, sequence (Q15303 whole entry): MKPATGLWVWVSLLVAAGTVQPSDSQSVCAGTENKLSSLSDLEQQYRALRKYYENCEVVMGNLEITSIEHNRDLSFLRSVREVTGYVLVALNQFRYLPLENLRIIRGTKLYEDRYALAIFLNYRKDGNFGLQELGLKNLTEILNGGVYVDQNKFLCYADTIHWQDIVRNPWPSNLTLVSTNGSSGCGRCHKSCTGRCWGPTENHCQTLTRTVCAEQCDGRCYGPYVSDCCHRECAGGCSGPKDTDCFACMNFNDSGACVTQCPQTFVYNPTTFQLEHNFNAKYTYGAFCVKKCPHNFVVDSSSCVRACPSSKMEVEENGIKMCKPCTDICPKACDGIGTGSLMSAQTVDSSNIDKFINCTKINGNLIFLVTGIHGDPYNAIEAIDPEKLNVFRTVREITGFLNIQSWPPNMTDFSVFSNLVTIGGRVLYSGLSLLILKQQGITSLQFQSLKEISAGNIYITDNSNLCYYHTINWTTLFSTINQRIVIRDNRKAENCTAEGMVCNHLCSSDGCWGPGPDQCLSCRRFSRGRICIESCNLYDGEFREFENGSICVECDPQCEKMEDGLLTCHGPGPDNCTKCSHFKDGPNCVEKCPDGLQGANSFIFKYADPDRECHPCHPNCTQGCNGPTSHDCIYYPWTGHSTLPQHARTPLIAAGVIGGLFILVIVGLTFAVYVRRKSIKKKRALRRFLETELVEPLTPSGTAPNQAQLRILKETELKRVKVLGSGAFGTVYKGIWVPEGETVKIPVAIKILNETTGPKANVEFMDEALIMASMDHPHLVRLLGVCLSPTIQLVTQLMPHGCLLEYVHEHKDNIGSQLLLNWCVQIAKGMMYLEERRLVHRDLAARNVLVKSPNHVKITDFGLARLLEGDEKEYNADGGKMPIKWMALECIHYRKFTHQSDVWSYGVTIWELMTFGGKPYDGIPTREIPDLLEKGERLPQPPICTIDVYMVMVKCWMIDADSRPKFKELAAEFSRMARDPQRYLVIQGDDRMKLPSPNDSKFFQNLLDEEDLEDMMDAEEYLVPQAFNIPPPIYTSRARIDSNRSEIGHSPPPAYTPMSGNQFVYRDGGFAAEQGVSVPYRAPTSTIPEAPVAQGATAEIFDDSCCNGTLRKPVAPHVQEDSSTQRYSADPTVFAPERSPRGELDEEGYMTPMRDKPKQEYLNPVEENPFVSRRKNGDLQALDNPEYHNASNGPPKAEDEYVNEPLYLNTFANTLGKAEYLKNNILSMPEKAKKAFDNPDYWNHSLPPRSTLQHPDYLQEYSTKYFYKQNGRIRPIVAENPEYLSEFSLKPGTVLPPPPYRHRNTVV

[17] = species: Homo sapiens; assay: Selectivity index, ratio of IC50 for FRK (unknown origin) to IC50 for recombinant full length BTK (unknown origin) expressed in baculovirus infected Sf9 cells
[18] = target: Tyrosine-protein kinase Blk (Homo sapiens, UniProt P51451); assay: Inhibition of BLK (unknown origin)
Tyrosine-protein kinase Blk, sequence (P51451 whole entry): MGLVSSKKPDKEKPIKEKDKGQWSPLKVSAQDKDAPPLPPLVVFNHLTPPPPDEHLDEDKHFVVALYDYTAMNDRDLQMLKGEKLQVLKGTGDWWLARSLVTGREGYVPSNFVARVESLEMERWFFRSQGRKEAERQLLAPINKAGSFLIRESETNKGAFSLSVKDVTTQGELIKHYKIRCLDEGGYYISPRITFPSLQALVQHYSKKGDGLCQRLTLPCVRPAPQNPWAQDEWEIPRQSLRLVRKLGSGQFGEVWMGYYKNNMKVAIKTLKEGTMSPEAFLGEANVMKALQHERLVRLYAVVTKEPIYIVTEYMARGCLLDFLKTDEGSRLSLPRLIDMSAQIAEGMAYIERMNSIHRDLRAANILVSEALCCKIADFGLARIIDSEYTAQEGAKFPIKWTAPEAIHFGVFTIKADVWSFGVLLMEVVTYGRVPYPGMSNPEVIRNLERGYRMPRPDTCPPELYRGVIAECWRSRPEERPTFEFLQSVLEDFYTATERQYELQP

[19] = target: T2, Tyrosine-protein kinase BTK (Homo sapiens, UniProt Q06187); assay: Inhibition of BTK in human PBMC assessed as reduction in cell surface CD69 expression preincubated for 1 hr followed by stimulation with goat anti-human IgM F(ab')2 for 18 hrs by immunostaining analysis; assay type: tissue-based
T2 sequence (Q06187 whole entry): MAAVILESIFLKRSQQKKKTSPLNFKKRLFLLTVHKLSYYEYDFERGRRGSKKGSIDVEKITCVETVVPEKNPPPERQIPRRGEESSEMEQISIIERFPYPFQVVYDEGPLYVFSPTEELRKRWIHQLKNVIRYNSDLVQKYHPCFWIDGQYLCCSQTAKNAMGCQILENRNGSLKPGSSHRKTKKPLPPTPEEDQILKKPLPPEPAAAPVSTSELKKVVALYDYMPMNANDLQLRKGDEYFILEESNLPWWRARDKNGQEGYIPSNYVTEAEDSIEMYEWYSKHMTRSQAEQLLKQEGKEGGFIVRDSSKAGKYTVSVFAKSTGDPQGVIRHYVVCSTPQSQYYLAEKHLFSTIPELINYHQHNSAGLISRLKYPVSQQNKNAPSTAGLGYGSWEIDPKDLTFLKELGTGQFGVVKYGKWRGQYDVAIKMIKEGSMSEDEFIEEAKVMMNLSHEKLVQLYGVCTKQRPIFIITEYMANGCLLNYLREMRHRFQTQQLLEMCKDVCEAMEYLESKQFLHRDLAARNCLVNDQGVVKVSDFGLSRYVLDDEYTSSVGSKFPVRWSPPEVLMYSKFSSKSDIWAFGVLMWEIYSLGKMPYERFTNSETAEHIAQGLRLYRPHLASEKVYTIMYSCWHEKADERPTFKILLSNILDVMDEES

[20] = species: Homo sapiens; assay: Selectivity index, ratio of IC50 for BLK (unknown origin) to IC50 for recombinant full length BTK (unknown origin) expressed in baculovirus infected Sf9 cells
[21] = target: Tyrosine-protein kinase Yes (Homo sapiens, UniProt P07947); assay: Inhibition of YES1 (unknown origin)
Tyrosine-protein kinase Yes, sequence (P07947 whole entry): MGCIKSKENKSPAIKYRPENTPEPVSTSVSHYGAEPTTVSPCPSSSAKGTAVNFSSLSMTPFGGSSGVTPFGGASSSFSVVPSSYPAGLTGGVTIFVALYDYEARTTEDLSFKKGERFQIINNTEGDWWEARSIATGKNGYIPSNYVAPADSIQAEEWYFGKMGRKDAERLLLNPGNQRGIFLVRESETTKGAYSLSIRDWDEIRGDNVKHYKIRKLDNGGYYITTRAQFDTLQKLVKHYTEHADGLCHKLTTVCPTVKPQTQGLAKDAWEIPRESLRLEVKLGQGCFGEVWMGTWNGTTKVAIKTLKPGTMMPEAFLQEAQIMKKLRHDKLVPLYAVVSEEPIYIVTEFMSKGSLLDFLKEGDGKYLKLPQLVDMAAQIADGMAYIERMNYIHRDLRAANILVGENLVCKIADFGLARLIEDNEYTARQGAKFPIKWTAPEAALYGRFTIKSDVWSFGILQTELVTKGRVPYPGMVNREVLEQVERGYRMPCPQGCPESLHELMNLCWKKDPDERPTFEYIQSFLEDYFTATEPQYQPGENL

[22] = species: Homo sapiens; assay: Selectivity index, ratio of IC50 for SRMS (unknown origin) to IC50 for recombinant full length BTK (unknown origin) expressed in baculovirus infected Sf9 cells
[23] = target: Protein-tyrosine kinase 6 (Homo sapiens, UniProt Q13882); assay: Inhibition of PTK6 (unknown origin)
Protein-tyrosine kinase 6, sequence (Q13882 whole entry): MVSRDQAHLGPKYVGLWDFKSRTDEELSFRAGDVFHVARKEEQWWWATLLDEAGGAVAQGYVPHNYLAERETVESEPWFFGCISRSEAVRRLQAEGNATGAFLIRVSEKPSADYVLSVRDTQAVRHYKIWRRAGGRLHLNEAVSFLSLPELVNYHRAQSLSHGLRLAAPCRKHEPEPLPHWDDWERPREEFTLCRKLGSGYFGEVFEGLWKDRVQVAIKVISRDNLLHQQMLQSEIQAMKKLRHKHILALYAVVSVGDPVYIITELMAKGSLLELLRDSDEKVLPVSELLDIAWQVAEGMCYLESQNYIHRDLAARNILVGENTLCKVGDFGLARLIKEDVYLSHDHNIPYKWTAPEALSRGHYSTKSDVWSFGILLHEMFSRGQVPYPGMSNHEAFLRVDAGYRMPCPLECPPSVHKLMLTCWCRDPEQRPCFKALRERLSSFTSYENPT

[24] = target: T3, Cytoplasmic tyrosine-protein kinase BMX (Homo sapiens, UniProt P51813); assay: Inhibition of BMX (unknown origin)
T3 sequence (P51813 whole entry): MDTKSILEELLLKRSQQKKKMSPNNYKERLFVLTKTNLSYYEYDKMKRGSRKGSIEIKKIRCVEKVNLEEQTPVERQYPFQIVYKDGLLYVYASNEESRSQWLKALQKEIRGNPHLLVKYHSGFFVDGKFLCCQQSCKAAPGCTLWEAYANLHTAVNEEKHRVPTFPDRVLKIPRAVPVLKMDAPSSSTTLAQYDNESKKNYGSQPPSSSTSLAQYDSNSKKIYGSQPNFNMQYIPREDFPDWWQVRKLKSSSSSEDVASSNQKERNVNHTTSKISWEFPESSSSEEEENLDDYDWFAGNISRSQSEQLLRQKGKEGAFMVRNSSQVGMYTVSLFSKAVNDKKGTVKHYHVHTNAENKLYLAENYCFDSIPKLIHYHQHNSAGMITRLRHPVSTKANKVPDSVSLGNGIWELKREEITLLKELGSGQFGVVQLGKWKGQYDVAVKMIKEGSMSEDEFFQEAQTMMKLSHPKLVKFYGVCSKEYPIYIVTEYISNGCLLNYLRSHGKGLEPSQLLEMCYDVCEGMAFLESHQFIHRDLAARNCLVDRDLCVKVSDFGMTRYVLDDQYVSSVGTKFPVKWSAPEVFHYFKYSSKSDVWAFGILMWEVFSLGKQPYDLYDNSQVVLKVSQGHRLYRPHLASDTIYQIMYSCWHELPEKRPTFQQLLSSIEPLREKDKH

[25] = target: T2, Tyrosine-protein kinase BTK; assay: Inhibition of BTK in human whole blood assessed as reduction in cell surface CD69 expression preincubated for 1 hr followed by stimulation with anti-CD79b for 3 hrs by immunostaining analysis; assay type: tissue-based
[26] = species: Homo sapiens; assay: Selectivity index, ratio of IC50 for FYN (unknown origin) to IC50 for recombinant full length BTK (unknown origin) expressed in baculovirus infected Sf9 cells
[27] = target: Tyrosine-protein kinase CSK (Homo sapiens, UniProt P41240); assay: Inhibition of CSK (unknown origin)
[28] = Oral bioavailability in Wistar Han rat at 5 mg/kg; assay type: ADME, organism-based; settings: in vivo; for bioavailability: Wistar Han

Cmax [3] [nM] | pIC50 [4] | AUC [7] [µM·h] | pIC50 [8] | pIC50 [9] | Vd [10] [L/kg] | pIC50 [12] | half-life [13] [h] | pIC50 [14] | clearance [15] [mL/min/kg] | pIC50 [16] | pIC50 [18] | pIC50 [19] | Structure (SMILES) | Ratio IC50 [1] | Ratio IC50 [2] | Ratio IC50 [5] | Ratio IC50 [6] | Ratio IC50 [11] | Ratio IC50 [17] | Ratio IC50 [20] | further results
1000 | 7.16 | 2.3 | 7.57 | 8.10 | 5.6 | 7.89 | 3.6 | 7.44 | 26 | 7.64 | 7.77 | 8.55 | CC1(C)OC(=O)N2C[C@H](c3nc(-c4ccc(C(=O)Nc5cc(C(F)(F)F)ccn5)cc4)c4c(N)nccn34)CC[C@H]21 | 250 | 190 | 660 | 200 | 47 | 300 | 140 | pIC50 [21]: 7.52; Ratio IC50 [22]: 67; pIC50 [23]: 7.62; pIC50 [24]: 8.25; pIC50 [25]: 7.24; Ratio IC50 [26]: 1700; pIC50 [27]: 6.46; F ([28]; 5 mg/kg): 160%
1300 | 7.48 | 7.8 | 7.20 | 8.04 | 0.78 | 8.23 | 2.8 | 7.47 | 8 | 7.62 | 8.08 | 8.60 | Nc1nccn2c([C@@H]3CC[C@H]4CCC(=O)N4C3)nc(-c3ccc(C(=O)Nc4cc(C(F)(F)F)ccn4)cc3)c12 | 120 | 240 | 200 | 420 | 110 | 340 | 83 | pIC50 [21]: 7.92; Ratio IC50 [22]: 91; pIC50 [23]: 7.38; pIC50 [24]: 7.96; pIC50 [25]: 7.62; Ratio IC50 [26]: 870; pIC50 [27]: 6.79; bioavailability [28]: 46%

Structure (SMILES) | Cmax [3] [nM] | pIC50 [4] | AUC [7] [µM·h] | pIC50 [8] | pIC50 [9] | Vd [10] [L/kg] | pIC50 [12] | half-life [13] [h] | pIC50 [14] | clearance [15] [mL/min/kg] | pIC50 [16] | pIC50 [18] | pIC50 [19] | Ratio IC50 [1] | Ratio IC50 [2] | Ratio IC50 [5] | Ratio IC50 [6] | Ratio IC50 [11] | Ratio IC50 [17] | Ratio IC50 [20] | further results
Nc1nccn2c([C@@H]3CC[C@H]4COC(=O)N4C3)nc(-c3ccc(C(=O)Nc4cc(C(F)(F)F)ccn4)cc3)c12 | 340 | 7.04 | 5.1 | 7.04 | 7.85 | 1.2 | 7.96 | 5.1 | 7.34 | 17 | 7.47 | 7.66 | 8.24 | 420 | 410 | 590 | 600 | 157 | 554 | 265 | pIC50 [21]: 7.46; Ratio IC50 [22]: 169; pIC50 [23]: 7.30; pIC50 [24]: 7.89; pIC50 [25]: 7.44; Ratio IC50 [26]: 219; pIC50 [27]: 6.54; bioavailability [28]: 3.6%

From ChEMBL document CHEMBL4725309, “Potent, non-covalent reversible BTK inhibitors with 8-amino-imidazo[1,5-a]pyrazine core featuring 3-position bicyclic ring substitutes” (Bioorg Med Chem Lett, 2020)
